Type in all cases: in vivo
Common to all, as to conditions: 312 h, evaluated after 13 days, 100=total damage to plant, 0=no damage to plant

For assay [1], the system named is Amaranthus palmeri (AMAPA). Briefly: Pre-emergence biological efficacy. As for the experimental part:
(§1) Seeds of weeds and/or crops were sown in standard soil in pots (Amaranthus palmeri (AMAPA), Lolium perenne (LOLPE), Euphorbia heterophylla (EPHHL), Ipomoea hederacea (IPOHE), Setaria faberi (SETFA), Echinochloa crus-galli (ECHCG)). After cultivation for one day under controlled conditions in a glasshouse (at 24/19° C., day/night; 16 hours light), the plants were sprayed with an aqueous spray solution derived from the formulation of the technical active ingredient in a small amount of acetone and a special solvent and emulsifier mixture referred to as IF50 (11.12% Emulsogen EL360™+44.44% N-methylpyrrolidone+44.44% Dowanol DPM glycol ether), to create a 50 g/l solution which was then diluted using 0.2% Genapol XO80 as diluent to give the desired final dose of test compound.
(§2) The test plants were then grown under controlled conditions in the glasshouse (at 24/18° C., day/night; 15 hours light; 50% humidity) and watered twice daily. After 13 days the test was evaluated (100=total damage to plant; 0=no damage to plant).

Assay [2] concerns Echinochloa crus-galli (ECHCG). In words: Pre-emergence biological efficacy. As for the experimental part:
as §1, §2

The subject of assay [3] is Euphorbia heterophylla (EPHHL). Briefly: Pre-emergence biological efficacy. As to the method:
as §1, §2

The test system of assay [4] is Ipomoea hederacea (IPOHE). In words: Pre-emergence biological efficacy. As to the method: as §1, §2
Assay [5] relates to Lolium perenne (LOLPE). Briefly: Pre-emergence biological efficacy. As to the method:
as §1, §2

Assay [6] concerns Setaria faberi (SETFA). In words: Pre-emergence biological efficacy. As to the method:
as §1, §2

Assay [7] has as its system Amaranthus palmeri (AMAPA). In words: Post-emergence biological efficacy. As for the experimental part: as §1, with “Chenopodium album (CHEAL),” for “Lolium perenne (LOLPE),”, “(IPOHE), Eleusine indica (ELEIN), Lolium perenne (LOLPE), Digitaria sanguinalis (DIGSA),” for “(IPOHE),”, “14 days” for “one day”, “compound. The test plants were then grown under controlled conditions in the glasshouse (at 24/18° C., day/night; 15 hours light; 50% humidity) and watered twice daily. After 13 days the test was evaluated (100=total damage to plant; 0=no damage to plant).” for “compound.”

In assay [8] the test system is Chenopodium album (CHEAL). In words: Post-emergence biological efficacy. As to the method:
as §1, with “Chenopodium album (CHEAL),” for “Lolium perenne (LOLPE),”, “(IPOHE), Eleusine indica (ELEIN), Lolium perenne (LOLPE), Digitaria sanguinalis (DIGSA),” for “(IPOHE),”, “14 days” for “one day”, “compound. The test plants were then grown under controlled conditions in the glasshouse (at 24/18° C., day/night; 15 hours light; 50% humidity) and watered twice daily. After 13 days the test was evaluated (100=total damage to plant; 0=no damage to plant).” for “compound.”

In assay [9] the test system is Digitaria sanguinalis (DIGSA). Briefly: Post-emergence biological efficacy. As to the method: as §1, with “Chenopodium album (CHEAL),” for “Lolium perenne (LOLPE),”, “(IPOHE), Eleusine indica (ELEIN), Lolium perenne (LOLPE), Digitaria sanguinalis (DIGSA),” for “(IPOHE),”, “14 days” for “one day”, “compound. The test plants were then grown under controlled conditions in the glasshouse (at 24/18° C., day/night; 15 hours light; 50% humidity) and watered twice daily. After 13 days the test was evaluated (100=total damage to plant; 0=no damage to plant).” for “compound.”

The subject of assay [10] is Echinochloa crus-galli (ECHCG). Briefly: Post-emergence biological efficacy. As for the experimental part: as §1, with “Chenopodium album (CHEAL),” for “Lolium perenne (LOLPE),”, “(IPOHE), Eleusine indica (ELEIN), Lolium perenne (LOLPE), Digitaria sanguinalis (DIGSA),” for “(IPOHE),”, “14 days” for “one day”, “compound. The test plants were then grown under controlled conditions in the glasshouse (at 24/18° C., day/night; 15 hours light; 50% humidity) and watered twice daily. After 13 days the test was evaluated (100=total damage to plant; 0=no damage to plant).” for “compound.”

Another assay deals with Eleusine indica (ELEIN). Briefly: Post-emergence biological efficacy. As to the method:
as §1, with “Chenopodium album (CHEAL),” for “Lolium perenne (LOLPE),”, “(IPOHE), Eleusine indica (ELEIN), Lolium perenne (LOLPE), Digitaria sanguinalis (DIGSA),” for “(IPOHE),”, “14 days” for “one day”, “compound. The test plants were then grown under controlled conditions in the glasshouse (at 24/18° C., day/night; 15 hours light; 50% humidity) and watered twice daily. After 13 days the test was evaluated (100=total damage to plant; 0=no damage to plant).” for “compound.”

In assay [11] the test system is Euphorbia heterophylla (EPHHL). Briefly: Post-emergence biological efficacy. As for the experimental part:
as §1, with “Chenopodium album (CHEAL),” for “Lolium perenne (LOLPE),”, “(IPOHE), Eleusine indica (ELEIN), Lolium perenne (LOLPE), Digitaria sanguinalis (DIGSA),” for “(IPOHE),”, “14 days” for “one day”, “compound. The test plants were then grown under controlled conditions in the glasshouse (at 24/18° C., day/night; 15 hours light; 50% humidity) and watered twice daily. After 13 days the test was evaluated (100=total damage to plant; 0=no damage to plant).” for “compound.”

The test system of assay [12] is Ipomoea hederacea (IPOHE). In words: Post-emergence biological efficacy. As to the method:
as §1, with “Chenopodium album (CHEAL),” for “Lolium perenne (LOLPE),”, “(IPOHE), Eleusine indica (ELEIN), Lolium perenne (LOLPE), Digitaria sanguinalis (DIGSA),” for “(IPOHE),”, “14 days” for “one day”, “compound. The test plants were then grown under controlled conditions in the glasshouse (at 24/18° C., day/night; 15 hours light; 50% humidity) and watered twice daily. After 13 days the test was evaluated (100=total damage to plant; 0=no damage to plant).” for “compound.”

Assay [13] has as its system Lolium perenne (LOLPE). In words: Post-emergence biological efficacy. As for the experimental part: as §1, with “Chenopodium album (CHEAL),” for “Lolium perenne (LOLPE),”, “(IPOHE), Eleusine indica (ELEIN), Lolium perenne (LOLPE), Digitaria sanguinalis (DIGSA),” for “(IPOHE),”, “14 days” for “one day”, “compound. The test plants were then grown under controlled conditions in the glasshouse (at 24/18° C., day/night; 15 hours light; 50% humidity) and watered twice daily. After 13 days the test was evaluated (100=total damage to plant; 0=no damage to plant).” for “compound.”

Assay [14] concerns Setaria faberi (SETFA). Briefly: Post-emergence biological efficacy. As to the method:
as §1, with “Chenopodium album (CHEAL),” for “Lolium perenne (LOLPE),”, “(IPOHE), Eleusine indica (ELEIN), Lolium perenne (LOLPE), Digitaria sanguinalis (DIGSA),” for “(IPOHE),”, “14 days” for “one day”, “compound. The test plants were then grown under controlled conditions in the glasshouse (at 24/18° C., day/night; 15 hours light; 50% humidity) and watered twice daily. After 13 days the test was evaluated (100=total damage to plant; 0=no damage to plant).” for “compound.”

What is called pest or weed control is how far the test organism was held down. Low values mean a weak effect, high ones a strong effect. With `CCOC(=O)CC1(NC(=O)c2cc(-n3c(=O)n(C)c(=S)n(C)c3=O)c(F)cc2Cl)CC1` [Compound 1-744, Ethyl 2-[1-[[2-chloro-5-(3,5-dimethyl-2,6-dioxo-4-thioxo-1,3,5-triazinan-1-yl)-4-fluoro-benzoyl]amino]cyclopropyl]acetate], the pest or weed control at 250 g/ha turned out to be 40% in [1]; 80% in assay [2]; 70% in [3]; 10% in [4]; 60% in the assay on Lolium perenne (LOLPE) [5]; 50% in the assay on Setaria faberi (SETFA) [6]. In addition, the pest or weed control at 250 g/ha in [7] amounted to 30%; in [8], 60%; in [9] it was 20%; in assay [10] it was 30%; with Eleusine indica (ELEIN) it was 50%; in assay [11], 70%. Also, the pest or weed control at 250 g/ha in assay [12] turned out to be 30%; in the assay with Lolium perenne (LOLPE) [13], 60%; with Setaria faberi (SETFA) [14], 10%.

The values above are taken from patent US20250127170A1, “TRIAZINE HERBICIDAL COMPOUNDS” (SYNGENTA CROP PROTECTION AG, priority 2021, published 2025).
